One sequence from patent US9278118B2, “Pharmaceutical combination for the treatment and/or chemosensibilization of refractory tumors to anticancer drugs” (Centro de Ingenieria Genetica Y Biotecnologia, priority 2006, dated 2016) can be followed below.

One experiment relates to Nucleofosmin. Kind of experiment: P15-regulated protein profile, nuclear extracts of H-125 cells. In kind it is cell-based, human. Particulars: down-regulated Nucleofosmin, P15 40 minutes.
In another experiment the test system is T-Plastin. The experiment is described as above. In kind it is cell-based, human. Particulars: down-regulated T-Plastin, P15 40 minutes.
Experiment [1] has as its system Y-box1 transcription factor. The description is as above. Particulars: down-regulated Y-box1 transcription factor, P15 40 minutes. In kind it is cell-based, human.
The next experiment relates to Eritropoietin precursor. The experiment is described as above. It counts as cell-based, human. Particulars: down-regulated Eritropoietin precursor, P15 40 minutes.
Experiment [2] concerns Gliceraldehyde 6-phosphate deshydrogenase. Particulars: down-regulated Gliceraldehyde 6-phosphate deshydrogenase; H-125 cells, P15 40 minutes. As for the experimental part:
(§1) H-125 cells were treated or not with the P15 peptide ingredient of the pharmaceutical combination described in this invention during 40 minutes. Subsequently, cell monolayers were washed with PBS and cells were scrapped from the surface. […] To analyze the P15-regulated proteins, the respective nuclear protein extracts were alternatively solved by 2D bidimensional gels (pH 4-7) and/or Liquid chromatography (nano HPLC) coupled to Mass spectrometer.
(§2) For this purpose, nuclear protein extracts coming from H-125 cells treated or not with the P15 peptide ingredient were analyzed as previously described in this invention.

For experiment [3], the system named is Glucose-6-phosphate isomerase. Particulars: down-regulated Glucose-6-phosphate isomerase; H-125 cells, P15 40 minutes. As for the experimental part:
as §1, §2

Experiment [4] has as its system Heat Shock Proteins (HSP-27, -70 y -90). Particulars: down-regulated Heat Shock Proteins (HSP-27, -70 y -90); H-125 cells, P15 40 minutes. The protocol: as §1, §2
The next experiment deals with Piruvate kinase. Particulars: down-regulated Piruvate kinase; H-125 cells, P15 40 minutes. As for the experimental part:
as §1, §2

The test system of experiment [5] is Proteasome activator complex. Particulars: down-regulated Proteasome activator complex; H-125 cells, P15 40 minutes. The protocol: as §1, §2
The test system of experiment [6] is S-gluthathione transferase. Particulars: down-regulated S-gluthathione transferase; H-125 cells, P15 40 minutes. As for the experimental part:
as §1, §2

A further experiment concerns Tubulin alpha-1. Particulars: up-regulated Tubulin alpha-1; H-125 cells, P15 40 minutes. The protocol: as §1, §2
The subject of another experiment is Tubulin beta-2. Particulars: up-regulated Tubulin beta-2; H-125 cells, P15 40 minutes. As for the experimental part: as §1, §2
In another experiment the test system is Tubulin beta-3. Particulars: up-regulated Tubulin beta-3; H-125 cells, P15 40 minutes. As for the experimental part: as §1, §2
For experiment [7], the system named is Ubiquitin activated E1 enzyme. Particulars: down-regulated Ubiquitin activated E1 enzyme; H-125 cells, P15 40 minutes. As for the experimental part:
as §1, §2

Experiment [8] deals with Translational controled tumor protein. The experiment is described as follows: P15-regulated protein profile, nuclear extracts of H-125 cells. It counts as cell-based, human. Particulars: down-regulated Translational controled tumor protein, P15 40 minutes.
Another experiment concerns Prohibitin. The description is as above. In kind it is cell-based, human. Particulars: up-regulated Prohibitin, P15 40 minutes.

For CWMSPRHLGTC [P15], the Inhibition rate with Nucleofosmin is reported as 48; in the experiment on T-Plastin it was 3.34; in [1], 3.33; in the experiment on Eritropoietin precursor it was 120; in experiment [2], 6.62; in experiment [3], 8.53. Moreover, the Inhibition rate in experiment [4] is on record as 2.5; in the experiment with Piruvate kinase, 8.34; in experiment [5] it was 3.35; in experiment [6] it was 4.87; in [7] it was 2.49; in [8], 4.32. Besides, the Activation rate in the experiment with Tubulin alpha-1 is 3.23; in the experiment on Tubulin beta-2, 2.56; in the experiment on Tubulin beta-3, 3.15; in the experiment on Prohibitin it was 2.28.
